Data: patent publication US20250171437A1 (Agios Pharmaceuticals,Inc., priority 2022, published 2025)

target: T1, human PAH with the R408W mutation (A375 R408W cells) (Homo sapiens, UniProt P00439, R408W); experiment: Cell Based Phenylalanine Flux Assay; conditions: A375 R408W cells; 24 hrs with compound, then 20 μM sepiapterin and 800 μM 13C9,15N-Phenylalanine for 4 hours; 13C-Tyrosine by LC-MS; average where tested multiple times
T1 construct: expressed in transfected cells
T1 sequence (P00439 1-452 R408W): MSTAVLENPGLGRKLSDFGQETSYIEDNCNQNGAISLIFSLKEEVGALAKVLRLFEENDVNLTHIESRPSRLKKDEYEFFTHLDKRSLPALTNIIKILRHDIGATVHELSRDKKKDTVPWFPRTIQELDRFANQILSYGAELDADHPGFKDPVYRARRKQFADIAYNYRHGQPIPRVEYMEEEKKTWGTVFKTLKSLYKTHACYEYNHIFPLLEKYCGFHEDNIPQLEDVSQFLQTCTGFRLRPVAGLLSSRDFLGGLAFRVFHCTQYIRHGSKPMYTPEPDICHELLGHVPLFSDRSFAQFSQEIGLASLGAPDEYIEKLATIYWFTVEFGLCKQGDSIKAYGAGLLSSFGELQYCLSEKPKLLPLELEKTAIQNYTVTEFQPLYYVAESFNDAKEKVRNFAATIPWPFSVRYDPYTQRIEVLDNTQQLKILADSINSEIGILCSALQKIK
Summary of the method: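 Phenylalanine-to-tyrosine flux is measured in A375 cells carrying stable human R408W PAH. After 24 h compound exposure, 13C9,15N-Phe (800 μM) with sepiapterin (20 μM) is supplied for 4 h and media 13C-Tyr is read by LC-MS; AC50s are binned.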

Row | SMILES | AC50
1 | O=C(c1ocnc1C1CC1)N1CCc2[nH]cnc2[C@@H]1c1nc2cc(F)ccc2o1 [Example 42, (R)-(4-cyclopropyloxazol-5-yl)(4-(5-fluorobenzo[d]oxazol-2-yl)-6,7-dihydro-1H-imidazo[4,5-c]pyridin-5(4H)-yl)methanone] | 1000 to 5000 nM
2 | O=C(c1ocnc1C(F)F)N1CCc2[nH]cnc2[C@H]1c1nc2c(OC(F)(F)F)cccc2o1 [Example 536, (S)-(4-(difluoromethyl)oxazol-5-yl)(4-(4-(trifluoromethoxy)benzo[d]oxazol-2-yl)-6,7-dihydro-1H-imidazo[4,5-c]pyridin-5(4H)-yl)methanone] | ≤ 500 nM
3 | Cc1ccc2oc([C@@H]3c4nc[nH]c4CCN3C(=O)c3nnc(-c4cn[nH]c4)o3)nc2c1 [Example 491, (S)-(5-(1H-pyrazol-4-yl)-1,3,4-oxadiazol-2-yl)(4-(5-methylbenzo[d]oxazol-2-yl)-6,7-dihydro-1H-imidazo[4,5-c]pyridin-5(4H)-yl)methanone] | 500 to 1000 nM
4 | Cc1ccc2nc([C@H]3c4nc[nH]c4CCN3C(=O)c3oc(C(C)(C)O)nc3C)oc2c1 [Example 320, (R)-(2-(2-hydroxypropan-2-yl)-4-methyloxazol-5-yl)(4-(6-methylbenzo[d]oxazol-2-yl)-6,7-dihydro-1H-imidazo[4,5-c]pyridin-5(4H)-yl)methanone] | ≥ 5000 nM
5 | Cn1cc(-c2nc(C(F)F)c(C(=O)N3CCc4[nH]cnc4[C@@H]3c3nc4ccccc4o3)o2)cn1 [Example 759, (R)-(4-(benzo[d]oxazol-2-yl)-6,7-dihydro-1H-imidazo[4,5-c]pyridin-5(4H)-yl)(4-(difluoromethyl)-2-(1-methyl-1H-pyrazol-4-yl)oxazol-5-yl)methanone] | 1000 to 5000 nM
6 | CC(F)(F)c1ncoc1C(=O)N1CCc2[nH]cnc2[C@@H]1c1nc2ccc(F)cc2o1 [Example 650, (R)-(4-(1,1-difluoroethyl)oxazol-5-yl)(4-(6-fluorobenzo[d]oxazol-2-yl)-6,7-dihydro-1H-imidazo[4,5-c]pyridin-5(4H)-yl)methanone] | 500 to 1000 nM
7 | CC(C)(O)c1nc(CF)c(C(=O)N2CCc3[nH]cnc3[C@H]2c2nc3cc(F)ccc3o2)o1 [Example 211, (S)-(4-(5-fluorobenzo[d]oxazol-2-yl)-6,7-dihydro-1H-imidazo[4,5-c]pyridin-5(4H)-yl)(4-(fluoromethyl)-2-(2-hydroxypropan-2-yl)oxazol-5-yl)methanone] | 500 to 1000 nM
8 | COc1cccc2nc([C@H]3c4nc[nH]c4CCN3C(=O)c3nc(C(F)(F)F)nn3C)oc12 [Example 698, (R)-(4-(7-methoxybenzo[d]oxazol-2-yl)-6,7-dihydro-1H-imidazo[4,5-c]pyridin-5(4H)-yl)(1-methyl-3-(trifluoromethyl)-1H-1,2,4-triazol-5-yl)methanone] | 1000 to 5000 nM
9 | Cn1nccc1C(=O)N1CCc2[nH]cnc2[C@@H]1c1nc2ccccc2o1 [Example 712, (R)-(4-(benzo[d]oxazol-2-yl)-6,7-dihydro-1H-imidazo[4,5-c]pyridin-5(4H)-yl)(1-methyl-1H-pyrazol-5-yl)methanone] | 1000 to 5000 nM
10 | O=C(c1cnc(-c2ccccn2)o1)N1CCc2[nH]cnc2[C@@H]1c1nc2ccc(Br)cc2o1 [Example 8, (R)-(4-(6-bromobenzo[d]oxazol-2-yl)-6,7-dihydro-1H-imidazo[4,5-c]pyridin-5(4H)-yl)(2-(pyridin-2-yl)oxazol-5-yl)methanone] | 1000 to 5000 nM
11 | O=C(c1nnc(-c2ccc(F)cc2)o1)N1CCc2[nH]cnc2[C@@H]1c1nc2cc(F)ccc2o1 [Example 28, (R)-(4-(5-fluorobenzo[d]oxazol-2-yl)-6,7-dihydro-1H-imidazo[4,5-c]pyridin-5(4H)-yl)(5-(4-fluorophenyl)-1,3,4-oxadiazol-2-yl)methanone] | 1000 to 5000 nM
12 | O=C(c1nnc(-c2cnn(C(F)F)c2)o1)N1CCc2[nH]cnc2[C@@H]1c1nc2cccc(F)c2o1 [Example 876, (R)-(5-(1-(difluoromethyl)-1H-pyrazol-4-yl)-1,3,4-oxadiazol-2-yl)(4-(7-fluorobenzo[d]oxazol-2-yl)-6,7-dihydro-1H-imidazo[4,5-c]pyridin-5(4H)-yl)methanone] | ≤ 500 nM
13 | CC(C)(C#N)c1nc(C(F)F)c(C(=O)N2CCc3[nH]cnc3[C@@H]2c2nc3cc(F)ccc3o2)o1 [Example 160, (R)-2-(4-(difluoromethyl)-5-(4-(5-fluorobenzo[d]oxazol-2-yl)-4,5,6,7-tetrahydro-1H-imidazo[4,5-c]pyridine-5-carbonyl)oxazol-2-yl)-2-methylpropanenitrile] | 500 to 1000 nM

Second part, the molecule after the results:

Row | AC50 | SMILES
14 | 500 to 1000 nM | O=C(c1oc(C2(O)CC2)nc1C(F)F)N1CCc2[nH]cnc2[C@H]1c1nc2cc(F)ccc2o1 [Example 141, (S)-(4-(difluoromethyl)-2-(1-hydroxycyclopropyl)oxazol-5-yl)(4-(5-fluorobenzo[d]oxazol-2-yl)-6,7-dihydro-1H-imidazo[4,5-c]pyridin-5(4H)-yl)methanone]
15 | 500 to 1000 nM | O=C(c1nnc(C2CC2)o1)N1CCc2[nH]cnc2[C@H]1c1nc2cc(F)ccc2o1 [Example 15, (S)-(5-cyclopropyl-1,3,4-oxadiazol-2-yl)(4-(5-fluorobenzo[d]oxazol-2-yl)-6,7-dihydro-1H-imidazo[4,5-c]pyridin-5(4H)-yl)methanone]
16 | 1000 to 5000 nM | Cc1cnn(C)c1-c1nnc(C(=O)N2CCc3[nH]cnc3[C@@H]2c2nc3cc(F)ccc3o2)o1 [Example 120, (R)-(5-(1,4-dimethyl-1H-pyrazol-5-yl)-1,3,4-oxadiazol-2-yl)(4-(5-fluorobenzo[d]oxazol-2-yl)-6,7-dihydro-1H-imidazo[4,5-c]pyridin-5(4H)-yl)methanone]
17 | ≤ 500 nM | Cc1ccc(F)c2oc([C@@H]3c4nc[nH]c4CCN3C(=O)c3ocnc3C(F)F)nc12 [Example 898, (S)-(4-(difluoromethyl)oxazol-5-yl)(4-(7-fluoro-4-methylbenzo[d]oxazol-2-yl)-6,7-dihydro-1H-imidazo[4,5-c]pyridin-5(4H)-yl)methanone]
18 | 1000 to 5000 nM | O=C(c1ocnc1C(F)F)N1CCc2[nH]cnc2[C@@H]1c1nc2cc(F)c(F)cc2o1 [Example 296, (R)-(4-(5,6-difluorobenzo[d]oxazol-2-yl)-6,7-dihydro-1H-imidazo[4,5-c]pyridin-5(4H)-yl)(4-(difluoromethyl)oxazol-5-yl)methanone]
19 | ≤ 500 nM | Cc1ccc2oc([C@@H]3c4nc[nH]c4CCN3C(=O)c3oc(-c4cn(C)cn4)nc3C(F)F)nc2c1 [Example 784, (S)-(4-(difluoromethyl)-2-(1-methyl-1H-imidazol-4-yl)oxazol-5-yl)(4-(5-methylbenzo[d]oxazol-2-yl)-6,7-dihydro-1H-imidazo[4,5-c]pyridin-5(4H)-yl)methanone]
20 | 500 to 1000 nM | Cn1cc(-c2nc(C(F)F)c(C(=O)N3CCc4[nH]cnc4[C@H]3c3nc4cc(F)ccc4o3)o2)cn1 [Example 88, (S)-(4-(difluoromethyl)-2-(1-methyl-1H-pyrazol-4-yl)oxazol-5-yl)(4-(5-fluorobenzo[d]oxazol-2-yl)-6,7-dihydro-1H-imidazo[4,5-c]pyridin-5(4H)-yl)methanone]
21 | 1000 to 5000 nM | Cn1cc(-c2nnc(C(=O)N3CCc4[nH]cnc4[C@H]3c3nc4cc(F)ccc4o3)o2)cn1 [Example 67, (S)-(4-(5-fluorobenzo[d]oxazol-2-yl)-6,7-dihydro-1H-imidazo[4,5-c]pyridin-5(4H)-yl)(5-(1-methyl-1H-pyrazol-4-yl)-1,3,4-oxadiazol-2-yl)methanone]
22 | ≤ 500 nM | Cc1ccc(F)c2nc([C@@H]3c4nc[nH]c4CCN3C(=O)c3oc(C(C)(C)O)nc3C(F)F)oc12 [Example 723, (S)-(4-(difluoromethyl)-2-(2-hydroxypropan-2-yl)oxazol-5-yl)(4-(4-fluoro-7-methylbenzo[d]oxazol-2-yl)-6,7-dihydro-1H-imidazo[4,5-c]pyridin-5(4H)-yl)methanone]

same assay, conditions: A375 cells expressing R408W PAH; 24 hrs with compound, then 20 μM sepiapterin and 800 μM 13C9,15N-Phenylalanine for 4 hours; 13C-Tyrosine by LC-MS; average where tested multiple times

Row | SMILES | AC50
23 | Cn1cnnc1C(=O)N1CCc2[nH]cnc2C1c1nc2cccc(F)c2o1 (stereo not shown) | 1000 to 5000 nM
24 | O=C(c1nnc(N2CCC(F)CC2)o1)N1CCc2[nH]cnc2C1c1nc2cc(F)ccc2o1 (stereo not shown) | 1000 to 5000 nM
25 | Cc1nc(C(=O)N2CCc3[nH]cnc3C2c2nc3c(F)cccc3o2)n(C)n1 (stereo not shown) | 1000 to 5000 nM

More lines, now with the values ahead:

Row | AC50 | SMILES
26 | 1000 to 5000 nM | O=C(c1ccn(-c2ccccn2)n1)N1CCc2[nH]cnc2C1c1nc2cccc(F)c2o1 (stereo not shown)
27 | ≥ 5000 nM | Cc1nc(-c2cnn(C)c2)sc1C(=O)N1CCc2[nH]cnc2C1c1nc2cc(F)ccc2o1 (stereo not shown)
28 | 1000 to 5000 nM | Cn1nc(-c2ccccn2)nc1C(=O)N1CCc2[nH]cnc2C1c1nc2cccc(F)c2o1 (stereo not shown)
29 | 1000 to 5000 nM | Cc1nc(C2(O)CC2)oc1C(=O)N1CCc2[nH]cnc2C1c1nc2cc(F)ccc2o1 (stereo not shown)
30 | 1000 to 5000 nM | CC(C)(O)c1cc(C(=O)N2CCc3[nH]cnc3C2c2nc3ccc(F)cc3o2)no1 (stereo not shown)
31 | 1000 to 5000 nM | Cn1ncnc1C(=O)N1CCc2[nH]cnc2C1c1nc2cccc(F)c2o1 (stereo not shown)
32 | 1000 to 5000 nM | O=C(c1ccn(-c2ccccn2)n1)N1CCc2[nH]cnc2C1c1nc2ccccc2o1 (stereo not shown)
33 | ≥ 5000 nM | O=C(c1cncs1)N1CCc2[nH]cnc2C1c1nc2ccc(Br)cc2o1 (stereo not shown)
34 | ≥ 5000 nM | O=C(c1nccs1)N1CCc2[nH]cnc2C1c1nc2ccc(Br)cc2o1 (stereo not shown)
